The values below come from PubChem BioAssay AID179 (DTP/NCI, 2004).

In general, EC50 refers to the midpoint of the concentration-response curve. Broadly, the IC50 is the midpoint of a concentration-inhibition curve.

The assay concerns CEM cells HIV-1 protection, formazan growth assay. In words: NCI AIDS Antiviral Assay. To be noted: for IC50: measured here: growth of uninfected CEM cells. In a few lines:
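Human CEM cells, uninfected and HIV-1-infected, exposed to five drug concentrations; growth measured by soluble formazan assay and scored as percent protection from infection, with protecting compounds retested.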

Calls of active or inactive are those of the source.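 The calls were made as follows: active = compounds giving half or more protection of infected cells from virus-caused growth loss, again on retest; inactive = the rest.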

`O=c1c(Sc2c(O)c3ccccc3c3ccccc3c2=O)c(O)c2ccccc2c2ccccc12`: the result was inactive. Consider `O=S1(=O)OCCOS(=O)(=O)C1Cl`, for which the EC50 was greater than 1050 µM and the IC50 is 178 µM.

As for `O=C(O)CN=c1c2ccccc2n(O)c2ccccc12`, the outcome was inactive.

Take `Fc1ccc(C2SCc3nc4ccccc4n32)cc1Cl` (stereo not drawn): the EC50 was greater than 72.4 µM and the IC50 worked out at 25.7 µM. The matching figures for `COC1(OC)C2(Cl)C(Cl)=C(Cl)C1(Cl)C1C2C2CC1(C(=O)O)c1ccccc12` (stereo not drawn): greater than 251 µM and 13.5 µM. The matching figures for `CS/C=C\C(=O)O[C@H]1C[C@@H]2[C@@H](O)c3occ(C)c3C[C@]2(C)[C@@H](C)C1`: greater than 200 µM and 30.2 µM.

For `CC1=Nc2ccccc2C12C(c1ccccc1)CC(=O)N1c3ccccc3CC12` (stereo not drawn), the EC50 is greater than 33.9 µM and the concentration for half-maximal inhibition (IC50) is greater than 33.9 µM.

For `O=C1CCC2=C1C[C@@H]1CCCO[C@@H]1O2`, the result was inactive. With `O=[N+]([O-])c1ccc(-n2nc3ccc4nonc4c3n2)cc1`, the EC50 is greater than 200 µM and the half-inhibitory concentration (IC50) is greater than 200 µM. `COC(=O)/C=C/C1CC(CCCOc2ccccc2)OC(c2ccccc2)O1` (stereo not drawn): the EC50 is greater than 66.1 µM and the IC50 was greater than 66.1 µM. As for `Nc1nc(Cl)n2nc[n+](C3C=CC(=O)CC3)c2n1` (stereo not drawn), the outcome was inactive. As for `COC(=O)[C@@H](NC(=O)N(Cc1ccccc1)C[C@H](CC(C)C)NC(=O)[C@@H](NC(=O)OC(C)(C)C)C(C)C)C(C)C`, the EC50 is greater than 200 µM and the IC50 is greater than 100 µM. On to `CCCCCCCCCc1c(O)c(O)c(CCCCCCCCC)c(CCCCCCCCC)c1CCCCCCCCC`, for which the EC50 was greater than 100 µM and the IC50 was determined as 16.6 µM. For `OCC1=CCN2C[C@@H](O)[C@@H](O)[C@@H]12`, the EC50 is greater than 200 µM and the IC50 is greater than 200 µM. Take `c1ccc(/N=N/c2ccccn2)nc1`: the EC50 was greater than 200 µM and the 50% inhibitory concentration (IC50) was greater than 200 µM. Consider `COc1cc(C2SC(N)=Nc3c2c(C)nn3C(=O)c2ccccc2O)cc(OC)c1OC` (stereo not drawn), for which the EC50 is greater than 20 µM and the half-maximal inhibitory concentration (IC50) stood at 0.457 µM. The like results for `COc1ccc(/C=C2\CNC/C(=C\c3ccc(OC)cc3)C2=O)cc1` were, in that order, greater than 7.41 µM and greater than 7.41 µM. The matching figures for `CC(NC(=O)/C(C#N)=C/c1ccc2[nH]ccc2c1)c1ccccc1` (stereo not drawn): greater than 42.7 µM and greater than 42.7 µM. For `COC(=O)[C@@]1(C)CCC[C@]2(C)C3(O)C(C)C(=O)O[C@H](c4ccoc4)C3C(OC(C)=O)C21O` (stereo partly drawn), the EC50 is greater than 200 µM and the half-inhibitory concentration (IC50) is greater than 200 µM. For the molecule `Nc1nc(Cl)cc(NCC2(O)CCCC2)n1`, the EC50 was greater than 200 µM and the IC50 was 166 µM. `O=C1/C(=C/c2cc(O)c(O)c(O)c2)Oc2cc(O)cc(OC3OC(CO)C(O)C(O)C3O)c21` (stereo not drawn): the result was inactive.

Regarding `CCOC(=O)Nc1ccc(C(=O)/C=C\c2ccc(N(CC)CC)cc2)cc1`, the EC50 is greater than 200 µM and the 50% inhibitory concentration (IC50) was 3.72 µM. The matching figures for `COC1/C=C/OC2(C)Oc3c(C)c(O)c4c(O)c(c(/C=N/NC5C6CC7CC(C6)CC5C7)c(O)c4c3C2=O)NC(=O)/C(C)=C/C=C/C(C)C(O)C(C)C(O)C(C)C(OC(C)=O)C1C` (stereo not drawn): greater than 200 µM and 9.12 µM. As to `CCCCc1ccc(Nc2nc(Cl)c3ncn(C4CC(Oc5ccc(C)cc5)C(COc5ccc(C)cc5)O4)c3n2)cc1` (stereo not drawn), the EC50 was greater than 200 µM and the IC50 was greater than 200 µM. Consider `CCOC(=O)c1ccc(Nc2cnc3cc(C(F)(F)F)ccc3n2)cc1`, for which the EC50 is greater than 200 µM and the IC50 stood at 141 µM. The like results for `Cc1c(CC#N)cc(C)c2c3c([nH]c12)-c1ccccc1CC3` were, in that order, greater than 26.3 µM and 19.1 µM. For `CC(C)OP(=O)(CP(=O)(OC(C)C)OC(C)C)CP(=O)(OC(C)C)OC(C)C`, the EC50 is greater than 537 µM and the half-inhibitory concentration (IC50) worked out at 93.3 µM. The matching figures for `COc1ccc2c(O)c(Oc3ccccc3)c(=O)oc2c1`: greater than 200 µM and 145 µM.

`O=C1OC(C(O)CO)C(O)=C1O` (stereo not drawn): the outcome was inactive.

For `C1CSCCSCSCCS1`, the EC50 is greater than 44.7 µM and the IC50 is greater than 44.7 µM. `CC(C)C1OCC(CO)CO1` (stereo not drawn): the EC50 is greater than 200 µM and the 50% inhibitory concentration (IC50) was greater than 200 µM.

As to `C[C@]12C(=O)OC[C@H](c3ccccc3)N1C(=O)N(Cc1ccccc1)[C@@H]2CO`, the EC50 was greater than 200 µM and the IC50 was greater than 200 µM. As for `CC(NC(=O)CNP(=O)(c1ccccc1)c1ccccc1)C(=O)NC(Cc1ccccc1)C(=O)OCc1ccccc1` (stereo not drawn), the EC50 is greater than 200 µM and the half-inhibitory concentration (IC50) was determined as 20.4 µM.

For the molecule `OCC1OC(n2cnc3c(=S)nc[nH]c32)C(O)C1O` (stereo not drawn), the EC50 is greater than 871 µM and the IC50 was 617 µM.

For the molecule `C(/C=C/c1ccccc1)=Nc1ccc(CCc2ccc(N=C/C=C/c3ccccc3)cc2)cc1`, the EC50 was greater than 1.23 µM and the IC50 is greater than 1.23 µM. Consider `Clc1cccc(C2N3CCCCC3[C@@H]3c4[nH]c5ccccc5c4CCN23)c1` (stereo partly drawn), for which the EC50 is greater than 13.8 µM and the half-maximal inhibitory concentration (IC50) is greater than 13.8 µM. Regarding `O=C1/C(=C(/Br)I)c2ccccc2-c2ccccc21`, the EC50 is greater than 200 µM and the IC50 was found to be 8.32 µM. As for `CCCCCCCCCCCCCCCCC(O)CS(=O)(=O)O` (stereo not drawn), the EC50 was greater than 100 µM and the 50% inhibitory concentration (IC50) is 16.2 µM. The matching figures for `C[N+]1(CCCl)CCc2cccc([N+](=O)[O-])c2C1` (stereo not drawn): greater than 200 µM and 97.7 µM. The like results for `CCOC(=O)C(NC(=O)CC)(Nc1ccc(S(=O)(=O)Nc2onc(C)c2C)cc1)C(F)(F)F` (stereo not drawn) were, in that order, greater than 200 µM and greater than 200 µM. The like results for `COc1cc2c(cc1OC)C(C#N)C2` (stereo not drawn) were, in that order, 1050 µM and 1320 µM. `CCCCCCCCCCCCCCCCOC(=O)c1cc(O)cc(C(=O)OCCCCCCCCCCCCCCCC)c1`: the result was inactive. Take `CN(C)c1ccc(C2=C([O-])c3cc(-[n+]4ccccc4)ccc3C2=O)cc1`: the EC50 is greater than 200 µM and the half-inhibitory concentration (IC50) was 178 µM.

Consider `O=c1/c(=C/c2ccccn2)sc2nc3cc4c(cc3n12)OCCO4`, for which the EC50 was greater than 200 µM and the half-inhibitory concentration (IC50) is greater than 200 µM.

As to `N#C/C(=C\n1ccc(=O)[nH]c1=S)C(=O)c1ccc2ccccc2c1`, the EC50 is greater than 200 µM and the 50% inhibitory concentration (IC50) is 123 µM.

Regarding `CN1CCCN2CCN(C)CCCN(CC1)CC2`, the EC50 is greater than 977 µM and the IC50 was greater than 977 µM. For the molecule `COc1ccc(/C=C2\C(=O)Nc3ccccc32)cc1OC`, the EC50 was greater than 1.95 µM and the half-maximal inhibitory concentration (IC50) was greater than 1.95 µM. Take `Cc1ccc2c(c1C)CC1(Cc3c(ccc4c3CCC4)C1=O)C2=O` (stereo not drawn): the EC50 was greater than 100 µM and the 50% inhibitory concentration (IC50) is greater than 100 µM. For the molecule `N#CC1C(=O)NC(=O)C(C#N)C12CCCC(C(F)(F)F)C2` (stereo not drawn), the EC50 was greater than 200 µM and the IC50 was greater than 200 µM.

`COc1cc2c(cc1O)CC13CCC(=O)N1CCc1cc(OC)c(O)c-2c13` (stereo not drawn): the result was inactive. With `C=CCCC12CCCC(=O)C1Sc1ccccc12` (stereo not drawn), the EC50 is greater than 138 µM and the IC50 was 91.2 µM. Turning to `FC(F)(F)c1cc(Cl)c2ccc3ccccc3c2n1`, the result was inactive and the 50% inhibitory concentration (IC50) was determined as 12.6 µM. Regarding `NC(=O)C(NC=O)c1ccccc1` (stereo not drawn), the EC50 is greater than 200 µM and the half-inhibitory concentration (IC50) was greater than 200 µM.
